How the values were obtained:
[1] = Determination of oral bioavailability of Rotigotine conjugate; format: in vivo, Beagle dogs; set-up: key to AUClast (total amount Rotigotine and conjugate): AUClast value for Rotigotine; ++: >6-fold increase compared to Rotigotine; details: for AUClast (total amount Rotigotine and conjugate): as Example 11 (Beagle dogs, oral gavage), fold increase compared to Rotigotine
Method: (§1) Relative and absolute bioavailability may be determined in different animal models and according to different protocols. The following protocol is typical for determining bioavailability in female Beagle dogs. The animals were deprived from food over a time period of 8 h prior to administration and 2 h after administration of the test molecules. Water was supplied without limitation.
(§2) On the study day, the animals received test molecules, at a single dose of 15 μmole/kg, by oral gavage, formulated in mixtures of propylene glycol, ethanol and 0.9% NaCl+5% mannitol in water. Blood samples were collected from the jugular vein on the following time points: 0.25, 0.5, 1, 2, 4, 8 and 24 hours after dosing.
(§3) Pharmacokinetic parameters were calculated from concentration versus time data using non-compartmental pharmacokinetic methods using Phoenix pharmacokinetic software. Data are compared to Zytiga to establish improvement of its oral bioavailability by the Abiraterone conjugates.
In a similar fashion as described in Example 11, the bioavailability increase of Rotigotine conjugate 28 was determined.

[2] = test system: xenograft mouse model; details: oral administration; cited from earlier work
[3] = oral application in rat; cited from earlier work
[4] = test system: β-glucosidase; experiment: Enzymatic removal of the glucose moiety (treatment with β-glucosidase), conversion to parent drug
[5] = Determination of oral bioavailability of Abiraterone conjugates (plasma AUClast after oral gavage); format: in vivo; set-up: key to AUClast (total amount abiraterone and conjugate): AUClast value for Zytiga; +: 1.1-6-fold increase compared to Zytiga; ++: >7-fold increase compared to Zytiga; details: female Beagle dogs; for Conversion rate to Abiraterone: AUClast Abiraterone/AUClast conjugate + AUClast Abiraterone × 100%, oral 15 μmole/kg; for AUClast (total amount abiraterone and conjugate): single dose 15 μmole/kg by oral gavage, 24 h, fold increase compared to Zytiga
Method: as §1, §2, §3

[6] = Determination of oral bioavailability of Kalydeco conjugates; format: in vivo, Beagle dogs; set-up: key to AUClast (total amount Kalydeco and conjugate): AUClast value for Kalydeco; +: 1.1-6-fold increase compared to Kalydeco; details: for AUClast (total amount Kalydeco and conjugate): as Example 11 (Beagle dogs, oral gavage), fold increase compared to Kalydeco
Method: as §1, §2, §3
In a similar fashion as described in Example 11, the bioavailability increase of Kalydeco conjugate 17 was determined.

[7] = orally administered; cited from earlier work
[8] = oral administration, rat; cited from earlier work

SMILES | Conversion rate to Abiraterone [5] | AUClast (total amount abiraterone and conjugate) [5] | further results
CCCN(CCc1cccs1)[C@H]1CCc2c(O)cccc2C1 [Rotigotine, reference compound] | – | – | AUClast (total amount Rotigotine and conjugate) [1]: o
COc1cc(C)c2cc(O[C@@H]3O[C@H](CO)[C@@H](O)[C@H](O)[C@H]3O)c(C)cc2c1C(C)C | – | – | Reduction of tumor volume [2]: 50%
C[C@]12C=CC(=O)C=C1CC[C@@H]1[C@@H]2[C@@H](O)C[C@@]2(C)[C@H]1CC[C@]2(O)C(=O)CO[C@@H]1O[C@H](CO)[C@@H](O)[C@H](O)[C@H]1O [prednisolone-21-O-β-D-glucoside] | – | – | Increase of serum levels with respect to prednisolone [3]: two-fold increase
CCCN(CO[C@H]1CC[C@@]2(C)C(=CCC3[C@@H]2CC[C@]2(C)C(c4cccnc4)=CC[C@@H]32)C1)C(=O)O[C@@H]1O[C@H](CO)C(O)[C@H](O)C1O (stereo partly drawn) [Compound 7c] | +++ (41-50%) | ++ (>7-fold increase compared to Zytiga) | Conversion to Abiraterone and Kalydeco, respectively, upon treatment with β-glucosidase [4]: readily converted
CN(CO[C@H]1CC[C@@]2(C)C(=CCC3[C@@H]2CC[C@]2(C)C(c4cccnc4)=CC[C@@H]32)C1)C(=O)O[C@@H]1O[C@H](CO)C(O)[C@H](O)C1O (stereo partly drawn) [Compound 13] | ++ (21-40%) | ++ (>7-fold increase compared to Zytiga) | –
CC(C)(C)c1cc(C(C)(C)C)c(NC(=O)c2c[nH]c3ccccc3c2=O)cc1O [Kalydeco, reference compound] | – | – | AUClast (total amount Kalydeco and conjugate) [6]: o
C=CCN(CO[C@H]1CC[C@@]2(C)C(=CCC3[C@@H]2CC[C@]2(C)C(c4cccnc4)=CC[C@@H]32)C1)C(=O)O[C@@H]1O[C@H](CO)C(O)[C@H](O)C1O (stereo partly drawn) [Compound 7l] | +++ (41-50%) | ++ (>7-fold increase compared to Zytiga) | –
C[C@]12CC[C@H](OCN(C(=O)O[C@@H]3O[C@H](CO)C(O)[C@H](O)C3O)C3CCC3)CC1=CCC1[C@@H]2CC[C@]2(C)C(c3cccnc3)=CC[C@@H]12 (stereo partly drawn) [Compound 7g] | ++ (21-40%) | ++ (>7-fold increase compared to Zytiga) | –
C[C@]12CC[C@H](O[C@@H]3O[C@H](CO)[C@@H](O)[C@H](O)[C@H]3O)CC1=CCC1[C@@H]2CC[C@]2(C)C(c3cccnc3)=CC[C@@H]12 (stereo partly drawn) [3-O-β-Glucoside (33), 3-O-β-D-Glucopyranosyl-abiraterone, reference compound] | + (1-20%) | + (1.1-6-fold increase compared to Zytiga) | –
CN(CO[C@H]1CC[C@@]2(C)C(=CCC3[C@@H]2CC[C@]2(C)C(c4cccnc4)=CC[C@@H]32)C1)C(=O)O[C@@H]1O[C@H](CO)C(O)[C@H](O)C1O (stereo partly drawn) [Compound 7a] | +++ (41-50%) | – | –
CCCN(COc1cc(NC(=O)c2c[nH]c3ccccc3c2=O)c(C(C)(C)C)cc1C(C)(C)C)C(=O)O[C@@H]1O[C@H](CO)[C@@H](O)[C@H](O)[C@H]1O [Compound 17] | – | – | Conversion to Abiraterone and Kalydeco, respectively, upon treatment with β-glucosidase [4]: readily converted; Conversion rate to Kalydeco ([6]; AUClast Kalydeco/AUClast conjugate + AUClast Kalydeco × 100%, as Example 11): ++++ (>51%); AUClast (total amount Kalydeco and conjugate) [6]: + (1.1-6-fold increase compared to Kalydeco)
CCCN(COc1cccc2c1CC[C@H](N(CCC)CCc1cccs1)C2)C(=O)O[C@@H]1O[C@H](CO)[C@@H](O)[C@H](O)[C@H]1O [Compound 28] | – | – | Conversion rate to Rotigotine ([1]; AUClast Rotigotine/(AUClast conjugate + AUClast Rotigotine) × 100%, as Example 11): ++++ (>51%); AUClast (total amount Rotigotine and conjugate) [1]: ++ (>6-fold increase compared to Rotigotine)
CCN(CO[C@H]1CC[C@@]2(C)C(=CCC3[C@@H]2CC[C@]2(C)C(c4cccnc4)=CC[C@@H]32)C1)C(=O)O[C@@H]1O[C@H](CO)C(O)[C@H](O)C1O (stereo partly drawn) [Compound 7b] | ++++ (>51%) | + (1.1-6-fold increase compared to Zytiga) | –
CC(=O)O[C@H]1CC[C@@]2(C)C(=CC[C@@H]3[C@@H]2CC[C@]2(C)C(c4cccnc4)=CC[C@@H]32)C1 [3-O-Acetate (Zytiga), reference compound] | – | o | –
C[C@@H]1C[C@H]2[C@@H]3CCC4=CC(=O)C=C[C@]4(C)[C@@]3(F)[C@@H](O)C[C@]2(C)[C@@]1(O)C(=O)COC1O[C@H](CO)[C@@H](O)[C@H](O)[C@H]1O (stereo partly drawn) [dexamethasone glucoside] | – | – | Fraction of oral dose that reached the caecum as a free steroid [7]: ~60%
CO[C@@H]1O[C@H](COC(=O)NC(N)=NC(=O)Cc2c(Cl)cccc2Cl)[C@@H](O)[C@H](O)[C@H]1O | – | – | Relative Cmax compared to guanfacine [8]: lower value
COc1cc(C)c2cc(O)c(C)cc2c1C(C)C [7-hydroxy-3-methoxy cadalene] | – | – | Reduction of tumor volume [2]: did not show tumor volume reduction

From patent US11633484B2, “Method for improving the oral bioavailability of a drug” (PharmaCytics B.V., priority 2017, dated 2023)
